Laboratory results published in patent US20070059385A1, “Safe pharmaceutical composition for treating and preventing cancer and method of use” (priority 2005, published 2007).
Read-outs that look alike come from different tables or passages of the source.

Assays:
[1] = test system: cancer cells; experiment: Inhibition of tumor cell proliferation; assay type: cell-based; settings: Homo sapiens; 1 μg/ml drug, 72 hours; read-out: Inhibition (%) of growth of cancer cells
Description: Human tumor cell lines: Hela leukemia HL-60, malignant melanocarcinoma B 16, oral epidermoid carcinoma (KB), lung carcinoma (A549), breast carcinoma MCF-7, adenocarcinoma of stomach.
Animal tumor cell lines: Walker carcinoma, LLC-WRC-256, malignant melanoma (RMMI 1846), 3T3, and S-1 80 sarcoma (CCRF-180). All lines were routinely cultured in the RPMI1640 medium supplemented 20% fetal calf serum. The experiment was carried out in 96 microplate, each well had 5×10^5 cells and given desired concentration of 1 μg/ml (1×10^−6 g/ml) drug. Then the plate was incubated at 37° C. in an atmosphere of humidified air enriched with 5 percent carbon dioxide for 72 hours. Inhibition percent rate of tumor cell proliferation was obtained according to the bellow formula. [formula]

[2] = test system: carcinogen-DNA binding; experiment: Inhibition of carcinogen-DNA binding; assay type: cell-based
Description: Cells were maintained in 75-cm^2 tissue culture flask with media supplemented with retinoic acid (0.1 μg/ml) and epinephrine (0.5 μg/ml). The cells were passage when they reached approximately 80% confluence and were maintained at 37° C. in 5% CO2. Cells were plated at a density of 5×10^5 cells/well in 6-well tissue culture plates and allowed to incubated for 18 h at 37° C. in 5% CO2. Following incubation, the DNA was harvested and resuspended in Tris-EDTA buffer. RNA was removed by treating with RNase T1 and RNase A at 37° C. for 1 h. An aliquot was used for determining the DNA content by the absorbency at 260 nm, and the rest of the sample was used to determine the radioactivity; the percentage inhibition of carcinogen-DNA binding was determined by measuring the cpm/mg of DNA in the carcinogen.

[3] = dog, in vivo
Excerpt: Twenty normal adult dogs which weight approximately 10 kg±1 kg used in experiments.
Most deaths were caused by cardiac dysfunction.

SMILES: COC(=O)C[C@](O)(CCCC(C)(C)O)C(=O)O[C@@H]1C(OC)=C[C@]23CCCN2CCc2cc4c(cc2[C@H]13)OCO4 [HHT, Homoharringtonine]
- inhibition at 1 µg/mL [1]: 73.8 ± 8.1%
- Inhibition (%) of carcinogen-DNA binding [2]: 56.8 ± 6.2%
- major target organs involved in toxicity [3]: limited to G.I. tract, heart and hematopoietic organs
- reversibility of toxicities [3]: completely reversible upon discontinuation of treatment
- Abnormality of ECG, ST-T ([3]; 0.1 mg/kg/day): −
- Anorexia ([3]; 0.1 mg/kg/day): +
- Cardiac necrosis ([3]; 0.1 mg/kg/day): −
- Diarrhea ([3]; 0.1 mg/kg/day): ±
- Hepatic ecchymosis ([3]; 0.1 mg/kg/day): −
- Hepatic fibrosis and cirrhosis ([3]; 0.1 mg/kg/day): −
- Hepatic necrosis ([3]; 0.1 mg/kg/day): −
- Marrow depression ([3]; 0.1 mg/kg/day): +
- Renal necrosis ([3]; 0.1 mg/kg/day): −
- Renal toxic nephropathy ([3]; 0.1 mg/kg/day): −
- Seminal depression ([3]; 0.1 mg/kg/day): −
- Spleen necrosis ([3]; 0.1 mg/kg/day): −
- Vomiting ([3]; 0.1 mg/kg/day): +
- Abnormality of ECG, ST-T ([3]; 0.2 mg/kg/day): ±
- Anorexia ([3]; 0.2 mg/kg/day): ++
- Cardiac necrosis ([3]; 0.2 mg/kg/day): −
- Diarrhea ([3]; 0.2 mg/kg/day): +
- Hepatic ecchymosis ([3]; 0.2 mg/kg/day): −
- Hepatic fibrosis and cirrhosis ([3]; 0.2 mg/kg/day): −
- Hepatic necrosis ([3]; 0.2 mg/kg/day): ±
- Marrow depression ([3]; 0.2 mg/kg/day): +
- Renal necrosis ([3]; 0.2 mg/kg/day): −
- Renal toxic nephropathy ([3]; 0.2 mg/kg/day): −
- Seminal depression ([3]; 0.2 mg/kg/day): −
- Spleen necrosis ([3]; 0.2 mg/kg/day): −
- Vomiting ([3]; 0.2 mg/kg/day): +
- Abnormality of ECG, ST-T ([3]; 0.3 mg/kg/day): +
- Anorexia ([3]; 0.3 mg/kg/day): +++
- Cardiac necrosis ([3]; 0.3 mg/kg/day): ±
- Diarrhea ([3]; 0.3 mg/kg/day): +
- Erythrocyte count ([3]; 0.3 mg/kg/day): 3.40 ×10^6/mm^3
- Hepatic ecchymosis ([3]; 0.3 mg/kg/day): ±
- Hepatic fibrosis and cirrhosis ([3]; 0.3 mg/kg/day): ±
- Hepatic necrosis ([3]; 0.3 mg/kg/day): +
- Marrow depression ([3]; 0.3 mg/kg/day): ++
- Renal necrosis ([3]; 0.3 mg/kg/day): ±
- Renal toxic nephropathy ([3]; 0.3 mg/kg/day): ±
- Seminal depression ([3]; 0.3 mg/kg/day): −
- Spleen necrosis ([3]; 0.3 mg/kg/day): ±
- Vomiting ([3]; 0.3 mg/kg/day): ++
